Test results published in patent US10330670B2, “Therapeutic or prophylactic agent for retinopathy of prematurity, testing method for retinopathy of prematurity, and screening method for therapeutic or prophylactic substance for retinopathy of prematurity” (TOKYO UNIVERSITY OF AGRICULTURE AND TECHNOLOGY, priority 2012, dated 2019).
Entries after “also recorded” stand apart in the source; their conditions may differ.

How the values were obtained:
[1] = test system: retinal neovascularization; assay: Influence of nafamostat mesilate (NM) on retinal neovascularization in ROP model mice; type: in vivo; conditions: 1 mg/kg intraperitoneally every day P12-P17
Experimental: For the ROP models, the BMCMC-injected W^sh/W^sh mice produced in Reference Example 2 (administered by an amount of 1×10^6 cells/20 μL) were used, and W^sh/W^sh mice to which saline was administered by the same volume were used as the control group. The oxygen concentration for the period P0-P17 was replaced by the same schedule as Example 1 (see FIG. 7). 1 mg/kg/20 μl NM dissolved in saline or saline was injected to the mice intraperitoneally in the period P12-P17 every day. On P17, the mice were slaughtered and eyes are collected, and evaluation of neovascularization was performed in the similar manner as Example 1. The results are illustrated in FIG. 8. In FIG. 8 the sign “*” denotes P<0.05 (compared with the number of nuclei of the endothelial cells of the vessels of the control mice).

[2] = test system: human mast cell strain HMC-1; assay: Degranulation of mast cells induced by variation of oxygen concentration, β-hexosaminidase release; type: cell-based; conditions: 75% O2 24 hours then 20% O2 12 hours, p<0.05
Text: It has been known that human mast cell strain HMC-1 is a cell strain derived from leukemia, that it has a characteristic as a mast cell, and that it includes β-hexosaminidase in its granules. With reference to a previous report (European Journal of Immunology, Vol. 29, 2645-2649 (1999)), HMC-1 cells were suspended in an α-MEM culture medium to which 10% (v/v) fetal calf serum and a usual dose of antibiotic had been added for preparation of a mast cell suspension with a cell concentration of 5×10^5 cells/ml. Throughout the test period including the period in the high oxygen concentration environment, all the cells were subjected to an environment of 5% (v/v) CO2, 37° C. as the cultivation condition other than the oxygen concentration.
The mast cell suspension was dispensed on a 96-well plate at 4×10^5 cells/well. Cromolyn and each of the seven candidate substances were added to obtain the following concentrations. As controls (media) to which the agent was not added and as non-treated examples to which the marker substance release induction process was not carried out, wells to which neither cromolyn nor the candidate substances was added were set.
The marker substance (β-hexosaminidase) release induction process and the step for contact with the mast cells HMC-1 that had been subjected to the marker substance release induction process were performed by retaining the 96-well plate in the high oxygen concentration environment (75 v/v % oxygen) for 24 hours and in the normal oxygen environment (20 v/v % oxygen) for 12 hours. For the non-treated example, the 96-well plate was retained in the normal oxygen environment (20 v/v % oxygen) for 24 hours and further retained in the normal oxygen environment for 12 hours.
The detection and measurement of the marker substance (β-hexosaminidase) that had been released by degranulation of the mast cells in the contacting step were carried out by a previously reported method (Eur. J. Immunol. 19 (1989) 2251-2256). To put it briefly, the step was carried out in the following manner. After having collecting the supernatant from the respective wells after the contacting step, the pellets (cells) were dissolved in a 0.5% triton X-100-containing α-minimal essential medium (α-MEM: a product of Gibco) at the same volume. In the respective wells of the 96-well plate, 5 μl supernatant or cell lysates were mixed with a 50 μl substrate solution (1.3 mg/ml p-nitrophenyl-N-acetyl-β-D-glucosamine;
pH 4.5 in 100 mM sodium citrate). After incubation at 37° C. for 60 minutes, 150 μl, 200 mM solution of glycine (pH 10.7) was added, and the reaction was stopped. The absorbance was measured at 414 nm. The (%) of the released marker substance (β-hexosaminidase) was calculated according to the following expression; OD(supernatant)/(OD(supernatant).+OD(pellet))×100.
The test was performed by three-sample test, an average and standard deviation were calculated on the basis of the measurement results for statistic analysis by ANOVA+ Tukey's test.

[3] = test system: retinal neovascularization; assay: Influence of cromolyn on retinal neovascularization in oxygen-induced ROP model mice; type: in vivo; conditions: eyes on P17
Text: As have been reported before (Invest. Ophthalmol. Vis. Sci., 35, 101-111 (1994), etc.), for the +/+ mice, +/W^sh mice, and W^sh/W^sh mice, respectively, neonatal mice were placed in a closed chamber containing 75 v/v % O2 together with their mother for lactation on P7, and this state was maintained for 5 days (P7-P12). Subsequently, this state was continued for further 5 days (P12-P17) in the normal oxygen environment (21 v/v % O2) for induction of oxygen-induced retinopathy (OIR) for use as experimental ROP models. The control mice were raised in the normal oxygen environment (indoor environment, 25° C., 21 v/v % O2. The same applies for the description of Examples.) throughout the test period. Note that the symbol “P”, which refers to a date, herein denotes that the date is a postnatal date, and “P7”, for example, refers to a 7th postnatal date. On P17, eyes were collected from the mice with ROP, fixed with Davidson's fixative overnight, and then embedded with paraffin. Paraffin-embedded serial sections axially sectioned at 6 μm were obtained, stained with HE, images were taken at the magnification 20, and the number of nuclei of the endothelial cells on the side of the vitreous body of the internal limiting membrane was counted. In the immunohistochemical test, the sections were subjected to incubation at 4° C. overnight together with anti-PECAM-1 antibody (a product of Santa Cruz Biotechnology, Inc.) having been diluted at 1:100 (in capacity ratio). To examine an influence in various states of different oxygen concentration, mice for use in the tests were raised in a period from P0 to P17 according to the schedule in which the normal oxygen environment was used in the period P0-P7 (21 v/v % oxygen), the high oxygen concentration environment in the period P7-P12 (75 v/v % oxygen), and the normal oxygen environment in the period P12-P17. On P7 and P12, the oxygen concentration environment was replaced. The neonatal mice of +/+ mice and the W^sh/W^sh mice were divided into three groups, and cromolyn (a product of Sigma Aldrich Corporation) dissolved in phosphate buffered saline (PBS) was injected to the mice at the concentration of 50 mg/kg/20 μL intraperitoneally every day. PBS was administered to the control group at the same volume. Administration methods of the agent for the respective groups were as illustrated in FIG. 5. Specifically, for the first group, cromolyn was administered to the neonatal mice from P6 to P16. […] Subsequently, similarly to Reference Example 1, the number of nuclei of the endothelial cell was counted after staining the ocular sections by HE, and thereby influences of cromolyn on the retinal neovascularization in the +/+ and W^sh/W^sh neonatal mice was evaluated in the similar manner as Reference Example 1.

Structure (SMILES): N=C(N)c1ccc2cc(OC(=O)c3ccc(N=C(N)N)cc3)ccc2c1 [NM, nafamostat mesilate]
- retinal neovascularization (neovascular nuclei) ([1]; +/+ mice with induced ROP): inhibited retinal neovascularization
- retinal neovascularization (neovascular nuclei) ([1]; BMCMC-injected W^sh/W^sh mice with induced ROP): inhibited retinal neovascularization

Structure (SMILES): CC(C)c1ccc2oc3nc(N)c(C(=O)O)cc3c(=O)c2c1 [amlexanox]
- degranulation (ratio of released β-hexosaminidase) compared with controls (media) ([2]; 1 μM amlexanox): inhibited the degranulation

Structure (SMILES): O=C(O)c1cc(=O)c2c(OCC(O)COc3cccc4oc(C(=O)O)cc(=O)c34)cccc2o1 [cromolyn, cromoglycic acid]
- degranulation (ratio of released β-hexosaminidase) compared with controls (media) ([2]; 10 ng/ml): inhibited the degranulation
- retinal neovascularization (number of nuclei of the endothelial cell, HE-stained ocular sections) ([3]; +/+ mice, first group: 50 mg/kg intraperitoneally every day P6-P16): a level as low as that in the W^sh/W^sh mice; also recorded: decreased pathological neovascularization
- retinal neovascularization (number of nuclei of the endothelial cell, HE-stained ocular sections) ([3]; +/+ mice, third group: 50 mg/kg intraperitoneally every day P11-P16): a level as low as that in the W^sh/W^sh mice; also recorded: significantly small; also recorded: less than those in the W^sh/W^sh mice
- retinal neovascularization (number of nuclei of the endothelial cell, HE-stained ocular sections) ([3]; second group: 50 mg/kg intraperitoneally every day P6-P11 (high oxygen period)): did not influence; also recorded: no effect of inhibition
- retinal neovascularization (number of nuclei of the endothelial cell, HE-stained ocular sections) ([3]; second group: 50 mg/kg intraperitoneally every day P6-P11 (high oxygen period), listed as Cromolyn): did not influence

Structure (SMILES): NC1=NCC2c3ccccc3Cc3ccccc3N12 (stereo not drawn) [epinastine]
- degranulation (ratio of released β-hexosaminidase) compared with controls (media) ([2]; 1 ng/ml): inhibited the degranulation

Structure (SMILES): C[C@@H]1CN([C@H]2CC[C@](C#N)(c3ccc(F)cc3)CC2)CC[C@]1(C(=O)O)c1ccccc1 [levocabastine]
- degranulation (ratio of released β-hexosaminidase) compared with controls (media) ([2]; 10 nM levocabastine): inhibited the degranulation

Structure (SMILES): Cc1cccn2c(=O)c(-c3nnn[nH]3)cnc12 [pemirolast]
- degranulation (ratio of released β-hexosaminidase) compared with controls (media) ([2]; 10 nM pemirolast): inhibited the degranulation

Structure (SMILES): CCOCC(O)COc1ccc(NC(=O)CC[S+](C)C)cc1 (stereo not drawn) [suplatast]
- degranulation (ratio of released β-hexosaminidase) compared with controls (media) ([2]; 10 μM suplatast): inhibited the degranulation
